Data: US20060069132A1, “Azolecarboxamide herbicides” (priority 2004, published 2006)

Experiments:
giant foxtail [1] = assay: Test C pre-/postemergence herbicide test; assay type: in vivo, Setaria faberi
Method in brief: (§1)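 Preemergence: seeds planted and treated with compound in non-phytotoxic solvent with surfactant; postemergence: plants at 2 to 18 cm (1- to 4-leaf stage) sprayed likewise. Kept in greenhouse 12 to 14 days, then visually rated against controls, 0 (no effect) to 100 (complete control).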

giant foxtail [2] = assay: Test A pre-/postemergence herbicide test; assay type: in vivo, Setaria faberi
Method in brief: (§2)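 Sandy loam soil given preemergence directed spray; plants at 2 to 10 cm, one- to two-leaf stage, sprayed to runoff postemergence, compounds in non-phytotoxic solvent with surfactant. Injury rated visually versus untreated controls after about ten greenhouse days, 0 (no effect) to 100 (complete control); dash means not tested.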

morningglory = assay: Test C pre-/postemergence herbicide test; assay type: in vivo, Ipomoea coccinea; set-up: key to Plant response rating, Morningglory: 0 = no effect, 100 = complete control
Method in brief: as §1

large crabgrass = assay: Test A pre-/postemergence herbicide test; assay type: in vivo, Digitaria sanguinalis
Method in brief: as §2

woolly cupgrass = assay: Test C pre-/postemergence herbicide test; assay type: in vivo, Eriochloa villosa
Method in brief: as §1

yellow nutsedge = assay: Test C pre-/postemergence herbicide test; assay type: in vivo, Cyperus esculentus
Method in brief: as §1

velvetleaf = assay: Test A pre-/postemergence herbicide test; assay type: in vivo, Abutilon theophrasti
Method in brief: as §2

soybean = assay: Test C pre-/postemergence herbicide test; assay type: in vivo, Glycine max
Method in brief: as §1

[3] = 62 g ai/ha, preemergence, scale 0 to 100
[4] = 125 g ai/ha, scale 0 (no effect) to 100 (complete control), visual, 12 to 14 days, preemergence
[5] = 250 g ai/ha, scale 0-100, preemergence
[6] = 500 g ai/ha, scale 0 to 100 (0 no effect, 100 complete control), visual, 12 to 14 days, preemergence
[7] = Postemergence, 500 g ai/ha, scale 0 to 100
[8] = Postemergence, 250 g ai/ha, scale 0 to 100, 0 no effect, 100 complete control
[9] = postemergence, 125 g ai/ha, scale 0 to 100
[10] = postemergence, 62 g ai/ha, scale 0 to 100
[11] = Postemergence, 500 g ai/ha, 0 to 100 scale, 0 no effect, 100 complete control
[12] = Postemergence, 2000 g ai/ha, 0 to 100 scale, 0 no effect, 100 complete control
[13] = Preemergence, 2000 g ai/ha, visual rating, 0 to 100 scale (0 no effect, 100 complete control)
[14] = preemergence, 500 g ai/ha, visual injury, 0 to 100 scale (0 no effect, 100 complete control)
[15] = 31 g ai/ha, preemergence, scale 0 to 100
[16] = Postemergence, 125 g ai/ha, scale 0 to 100, 0 no effect, 100 complete control
[17] = Preemergence, 500 g ai/ha, visual rating, 0 to 100 scale (0 no effect, 100 complete control)
[18] = Preemergence, 2000 g ai/ha, 0 to 100 scale, 0 no effect, 100 complete control

CCc1nc(C(C)(C)C)sc1C(=O)Nc1cccc(C(=O)NCC2CC2)c1 [Compound 212]
Plant response rating, Foxtail, Giant (giant foxtail [1]; [3]): 0 | Plant response rating, Foxtail, Giant (giant foxtail [1]; [4]): 20 | Plant response rating, Foxtail, Giant (giant foxtail [1]; [5]): 20 | Plant response rating, Foxtail, Giant (giant foxtail [1]; [6]): 95 | Foxtail, Giant plant response rating (giant foxtail [1]; [7]): 60 | Plant response rating, Foxtail, Giant (giant foxtail [1]; [8]): 50 | Plant response rating, Foxtail, Giant (giant foxtail [1]; [9]): 20 | Plant response rating, Foxtail, Giant (giant foxtail [1]; [10]): 10 | Foxtail, Giant plant response rating (giant foxtail [2]; [11]): 45 | Plant response rating, Foxtail, Giant (giant foxtail [2]; [12]): 80 | Foxtail, Giant plant response rating (giant foxtail [2]; [13]): 95 | Foxtail, Giant plant response rating (giant foxtail [2]; [14]): 70 | Plant response rating, Morningglory (morningglory; [3]): 0 | Plant response rating, Morningglory (morningglory; [4]): 0 | Plant response rating, Morningglory (morningglory; [5]): 5 | Plant response rating, Morningglory (morningglory; [6]): 30 | Morningglory plant response rating (morningglory; [7]): 70 | Plant response rating, Morningglory (morningglory; [8]): 70 | Plant response rating, Morningglory (morningglory; [9]): 10 | Plant response rating, Morningglory (morningglory; [10]): 10 | Crabgrass, Large plant response rating (large crabgrass; [11]): 45 | Plant response rating, Crabgrass, Large (large crabgrass; [12]): 60 | Crabgrass, Large plant response rating (large crabgrass; [13]): 95 | Crabgrass, Large plant response rating (large crabgrass; [14]): 90 | Plant response rating, Cupgrass, Woolly (woolly cupgrass; [3]): 0 | Plant response rating, Cupgrass, Woolly (woolly cupgrass; [4]): 0 | Plant response rating, Cupgrass, Woolly (woolly cupgrass; [5]): 20 | Plant response rating, Cupgrass, Woolly (woolly cupgrass; [6]): 30 | Cupgrass, Woolly plant response rating (woolly cupgrass; [7]): 40 | Plant response rating, Cupgrass, Woolly (woolly cupgrass; [8]): 30 | Plant response rating, Cupgrass, Woolly (woolly cupgrass; [9]): 5 | Plant response rating, Cupgrass, Woolly (woolly cupgrass; [10]): 5 | Plant response rating, Nutsedge, Yellow (yellow nutsedge; [3]): 0 | Plant response rating, Nutsedge, Yellow (yellow nutsedge; [4]): 0 | Plant response rating, Nutsedge, Yellow (yellow nutsedge; [5]): 0 | Plant response rating, Nutsedge, Yellow (yellow nutsedge; [6]): 0 | Nutsedge, Yellow plant response rating (yellow nutsedge; [7]): 20 | Plant response rating, Nutsedge, Yellow (yellow nutsedge; [8]): 20 | Plant response rating, Nutsedge, Yellow (yellow nutsedge; [9]): 10 | Plant response rating, Nutsedge, Yellow (yellow nutsedge; [10]): 0 | Velvetleaf plant response rating (velvetleaf; [11]): 35 | Plant response rating, Velvetleaf (velvetleaf; [12]): 35 | Velvetleaf plant response rating (velvetleaf; [13]): 100 | Velvetleaf plant response rating (velvetleaf; [14]): 65 | Plant response rating, Soybean (soybean; [3]): 0 | Plant response rating, Soybean (soybean; [4]): 0 | Plant response rating, Soybean (soybean; [5]): 0 | Plant response rating, Soybean (soybean; [6]): 60 | Soybean plant response rating (soybean; [7]): 85 | Plant response rating, Soybean (soybean; [8]): 70 | Plant response rating, Soybean (soybean; [9]): 60 | Plant response rating, Soybean (soybean; [10]): 50

CCN(CC)C(=O)c1cccc(NC(=O)c2cc(C(C)(C)C)nn2C)n1 [Compound 314]
Plant response rating, Foxtail, Giant (giant foxtail [1]; [3]): 0 | Plant response rating, Foxtail, Giant (giant foxtail [1]; [4]): 0 | Plant response rating, Foxtail, Giant (giant foxtail [1]; [5]): 20 | Plant response rating, Foxtail, Giant (giant foxtail [1]; [6]): 70 | Foxtail, Giant plant response rating (giant foxtail [2]; [11]): 30 | Plant response rating, Foxtail, Giant (giant foxtail [2]; [12]): 70 | Foxtail, Giant plant response rating (giant foxtail [2]; [13]): 90 | Foxtail, Giant plant response rating (giant foxtail [2]; [14]): 60 | Plant response rating, Morningglory (morningglory; [3]): 0 | Plant response rating, Morningglory (morningglory; [4]): 10 | Plant response rating, Morningglory (morningglory; [5]): 30 | Plant response rating, Morningglory (morningglory; [6]): 40 | Crabgrass, Large plant response rating (large crabgrass; [11]): 20 | Plant response rating, Crabgrass, Large (large crabgrass; [12]): 60 | Crabgrass, Large plant response rating (large crabgrass; [13]): 90 | Crabgrass, Large plant response rating (large crabgrass; [14]): 55 | Plant response rating, Cupgrass, Woolly (woolly cupgrass; [3]): 0 | Plant response rating, Cupgrass, Woolly (woolly cupgrass; [4]): 0 | Plant response rating, Cupgrass, Woolly (woolly cupgrass; [5]): 0 | Plant response rating, Cupgrass, Woolly (woolly cupgrass; [6]): 20 | Plant response rating, Nutsedge, Yellow (yellow nutsedge; [3]): 0 | Plant response rating, Nutsedge, Yellow (yellow nutsedge; [4]): 0 | Plant response rating, Nutsedge, Yellow (yellow nutsedge; [5]): 0 | Plant response rating, Nutsedge, Yellow (yellow nutsedge; [6]): 0 | Velvetleaf plant response rating (velvetleaf; [11]): 20 | Plant response rating, Velvetleaf (velvetleaf; [12]): 30 | Velvetleaf plant response rating (velvetleaf; [13]): 80 | Velvetleaf plant response rating (velvetleaf; [14]): 40 | Plant response rating, Soybean (soybean; [3]): 0 | Plant response rating, Soybean (soybean; [5]): 40 | Plant response rating, Soybean (soybean; [6]): 40

CCNC(=O)c1cccc(NC(=O)c2cc(C(C)(C)C)nn2CCF)c1 [Compound 35]
Plant response rating, Foxtail, Giant (giant foxtail [1]; [15]): 0 | Plant response rating (0 = no effect, 100 = complete control), Foxtail, Giant (giant foxtail [1]; 62 g ai/ha, preemergence): 20 | Plant response rating, Foxtail, Giant (giant foxtail [1]; [4]): 30 | Plant response rating, Foxtail, Giant (giant foxtail [1]; [16]): 40 | Plant response rating, Foxtail, Giant (giant foxtail [1]; [10]): 40 | Plant response rating, Foxtail, Giant (giant foxtail [2]; [11]): 50 | Plant response rating, Foxtail, Giant (giant foxtail [2]; [12]): 70 | Foxtail, Giant plant response rating (giant foxtail [2]; [17]): 80 | Foxtail, Giant plant response rating (giant foxtail [2]; [18]): 100 | Plant response rating, Morningglory (morningglory; [15]): 0 | Plant response rating (0 = no effect, 100 = complete control), Morningglory (morningglory; 62 g ai/ha, preemergence): 100 | Plant response rating, Morningglory (morningglory; [9]): 40 | Plant response rating, Morningglory (morningglory; [10]): 20 | Plant response rating, Crabgrass, Large (large crabgrass; [11]): 55 | Plant response rating, Crabgrass, Large (large crabgrass; [12]): 60 | Crabgrass, Large plant response rating (large crabgrass; [17]): 95 | Crabgrass, Large plant response rating (large crabgrass; [18]): 100 | Plant response rating, Cupgrass, Woolly (woolly cupgrass; [15]): 10 | Plant response rating (0 = no effect, 100 = complete control), Cupgrass, Woolly (woolly cupgrass; 62 g ai/ha, preemergence): 10 | Plant response rating, Cupgrass, Woolly (woolly cupgrass; [4]): 20 | Plant response rating, Cupgrass, Woolly (woolly cupgrass; [16]): 60 | Plant response rating, Cupgrass, Woolly (woolly cupgrass; [10]): 40 | Plant response rating, Nutsedge, Yellow (yellow nutsedge; 16 g ai/ha, scale 0 to 100, last section of Table C, preemergence): 0 | Plant response rating, Nutsedge, Yellow (yellow nutsedge; [15]): 0 | Plant response rating (0 = no effect, 100 = complete control), Nutsedge, Yellow (yellow nutsedge; 62 g ai/ha, preemergence): 0 | Plant response rating, Nutsedge, Yellow (yellow nutsedge; [4]): 0 | Plant response rating, Nutsedge, Yellow (yellow nutsedge; [9]): 0 | Plant response rating, Nutsedge, Yellow (yellow nutsedge; [10]): 0 | Plant response rating, Velvetleaf (velvetleaf; [11]): 25 | Plant response rating, Velvetleaf (velvetleaf; [12]): 40 | Velvetleaf plant response rating (velvetleaf; [17]): 35 | Velvetleaf plant response rating (velvetleaf; [18]): 95 | Plant response rating, Soybean (soybean; [15]): 0 | Plant response rating (0 = no effect, 100 = complete control), Soybean (soybean; 62 g ai/ha, preemergence): 0 | Plant response rating, Soybean (soybean; [4]): 0 | Plant response rating, Soybean (soybean; [9]): 90 | Plant response rating, Soybean (soybean; [10]): 90
